Experimental data published in the NIST ThermoML archive (doi:10.1021/je500980a).
Numbers after ± are expanded uncertainties.

Details: Liquid

CCCCCCCCCC(=O)OC [methyl decanoate]
viscosity [mPa·s]
Details | 293.15 K | 313.15 K | 333.15 K | 353.15 K
101.3 kPa, Falling or rolling sphere viscometry | 2.15 ± 0.08 | 1.46 ± 0.05 | 1.07 ± 0.04 | 0.825 ± 0.03
101.3 kPa, Quartz crystal resonator | 2.13 ± 0.04 | 1.5 ± 0.03 | 1.08 ± 0.02 | 0.837 ± 0.017
10000 kPa, Quartz crystal resonator | 2.36 ± 0.05 | 1.66 ± 0.04 | 1.19 ± 0.03 | 0.927 ± 0.019
20000 kPa, Falling or rolling sphere viscometry | 2.66 ± 0.1 | 1.83 ± 0.07 | 1.32 ± 0.05 | 1.01 ± 0.04
20000 kPa, Quartz crystal resonator | 2.62 ± 0.05 | 1.84 ± 0.04 | 1.3 ± 0.03 | 1.02 ± 0.02
30000 kPa, Quartz crystal resonator | 2.92 ± 0.06 | 2 ± 0.04 | 1.43 ± 0.03 | 1.12 ± 0.02
40000 kPa, Falling or rolling sphere viscometry | 3.24 ± 0.12 | 2.21 ± 0.08 | 1.58 ± 0.06 | 1.21 ± 0.04
40000 kPa, Quartz crystal resonator | 3.21 ± 0.07 | 2.2 ± 0.05 | 1.55 ± 0.03 | 1.22 ± 0.03
50000 kPa, Quartz crystal resonator | 3.53 ± 0.07 | 2.39 ± 0.05 | 1.68 ± 0.04 | 1.31 ± 0.03
60000 kPa, Falling or rolling sphere viscometry | 3.91 ± 0.14 | 2.65 ± 0.1 | 1.86 ± 0.07 | 1.42 ± 0.05
60000 kPa, Quartz crystal resonator | 3.87 ± 0.08 | 2.59 ± 0.05 | 1.81 ± 0.04 | 1.42 ± 0.03
70000 kPa, Quartz crystal resonator | 4.22 ± 0.09 | 2.82 ± 0.06 | 1.97 ± 0.04 | 1.53 ± 0.03
80000 kPa, Falling or rolling sphere viscometry | 4.67 ± 0.17 | 3.12 ± 0.11 | 2.17 ± 0.08 | 1.64 ± 0.06
80000 kPa, Quartz crystal resonator | 4.61 ± 0.1 | 3.06 ± 0.06 | 2.11 ± 0.04 | 1.63 ± 0.03
90000 kPa, Quartz crystal resonator | 5.02 ± 0.11 | 3.29 ± 0.07 | 2.26 ± 0.05 | 1.75 ± 0.04
100000 kPa, Falling or rolling sphere viscometry | 5.53 ± 0.2 | 3.63 ± 0.13 | 2.5 ± 0.09 | 1.88 ± 0.07
100000 kPa, Quartz crystal resonator | 5.47 ± 0.11 | 3.56 ± 0.08 | 2.43 ± 0.05 | 1.87 ± 0.04
120000 kPa, Falling or rolling sphere viscometry | 6.52 ± 0.24 | 4.21 ± 0.15 | 2.86 ± 0.1 | 2.13 ± 0.08
120000 kPa, Quartz crystal resonator | 6.47 ± 0.26 | 4.1 ± 0.17 | 2.76 ± 0.11 | 2.13 ± 0.09
140000 kPa, Falling or rolling sphere viscometry | 7.66 ± 0.28 | 4.85 ± 0.18 | 3.26 ± 0.12 | 2.41 ± 0.09
140000 kPa, Quartz crystal resonator | 7.82 ± 0.32 | 4.75 ± 0.19 | 3.19 ± 0.13 | 2.41 ± 0.1
160000 kPa, Falling or rolling sphere viscometry | 8.96 ± 0.32 | 5.56 ± 0.2 | 3.7 ± 0.13 | 2.71 ± 0.1
160000 kPa, Quartz crystal resonator | 9.17 ± 0.37 | 5.43 ± 0.22 | 3.62 ± 0.15 | 2.72 ± 0.11
180000 kPa, Falling or rolling sphere viscometry | – | 6.35 ± 0.23 | 4.18 ± 0.15 | 3.03 ± 0.11
180000 kPa, Quartz crystal resonator | – | 6.29 ± 0.25 | 4.07 ± 0.17 | 3.05 ± 0.12
200000 kPa, Falling or rolling sphere viscometry | – | 7.24 ± 0.26 | 4.7 ± 0.17 | 3.38 ± 0.12
200000 kPa, Quartz crystal resonator | – | 7.13 ± 0.29 | 4.54 ± 0.18 | 3.41 ± 0.14

CCCCCCCCCC(=O)OCC [ethyl decanoate]
viscosity [mPa·s]
Details | 293.15 K | 313.15 K | 333.15 K | 353.15 K
101.3 kPa, Falling or rolling sphere viscometry | 2.34 ± 0.09 | 1.59 ± 0.06 | 1.16 ± 0.04 | 0.888 ± 0.032
101.3 kPa, Quartz crystal resonator | 2.33 ± 0.05 | 1.59 ± 0.03 | 1.16 ± 0.02 | 0.893 ± 0.019
10000 kPa, Quartz crystal resonator | 2.59 ± 0.05 | 1.77 ± 0.04 | 1.28 ± 0.03 | 1 ± 0.02
20000 kPa, Falling or rolling sphere viscometry | 2.94 ± 0.11 | 1.96 ± 0.07 | 1.44 ± 0.05 | 1.1 ± 0.04
20000 kPa, Quartz crystal resonator | 2.91 ± 0.06 | 1.97 ± 0.04 | 1.43 ± 0.03 | 1.1 ± 0.02
30000 kPa, Quartz crystal resonator | 3.22 ± 0.07 | 2.18 ± 0.05 | 1.59 ± 0.03 | 1.21 ± 0.03
40000 kPa, Falling or rolling sphere viscometry | 3.62 ± 0.13 | 2.38 ± 0.09 | 1.74 ± 0.06 | 1.32 ± 0.05
40000 kPa, Quartz crystal resonator | 3.57 ± 0.07 | 2.39 ± 0.05 | 1.74 ± 0.04 | 1.32 ± 0.03
50000 kPa, Quartz crystal resonator | 3.95 ± 0.08 | 2.62 ± 0.06 | 1.87 ± 0.04 | 1.45 ± 0.03
60000 kPa, Falling or rolling sphere viscometry | 4.4 ± 0.16 | 2.85 ± 0.1 | 2.06 ± 0.07 | 1.56 ± 0.06
60000 kPa, Quartz crystal resonator | 4.35 ± 0.09 | 2.86 ± 0.06 | 2.07 ± 0.04 | 1.58 ± 0.03
70000 kPa, Quartz crystal resonator | 4.8 ± 0.1 | 3.14 ± 0.07 | 2.2 ± 0.05 | 1.72 ± 0.04
80000 kPa, Falling or rolling sphere viscometry | 5.29 ± 0.19 | 3.37 ± 0.12 | 2.42 ± 0.09 | 1.82 ± 0.07
80000 kPa, Quartz crystal resonator | 5.23 ± 0.11 | 3.44 ± 0.07 | 2.37 ± 0.05 | 1.84 ± 0.04
90000 kPa, Quartz crystal resonator | 5.74 ± 0.12 | 3.72 ± 0.08 | 2.59 ± 0.05 | 1.98 ± 0.04
100000 kPa, Falling or rolling sphere viscometry | 6.3 ± 0.23 | 3.96 ± 0.14 | 2.81 ± 0.1 | 2.1 ± 0.08
100000 kPa, Quartz crystal resonator | 6.25 ± 0.13 | 4.04 ± 0.09 | 2.82 ± 0.06 | 2.13 ± 0.04
120000 kPa, Falling or rolling sphere viscometry | 7.45 ± 0.27 | 4.62 ± 0.17 | 3.23 ± 0.12 | 2.4 ± 0.09
120000 kPa, Quartz crystal resonator | 7.46 ± 0.3 | 4.69 ± 0.19 | 3.27 ± 0.13 | 2.42 ± 0.1
140000 kPa, Falling or rolling sphere viscometry | 8.78 ± 0.32 | 5.35 ± 0.19 | 3.7 ± 0.13 | 2.73 ± 0.1
140000 kPa, Quartz crystal resonator | 8.83 ± 0.36 | 5.52 ± 0.22 | 3.72 ± 0.15 | 2.74 ± 0.11
160000 kPa, Falling or rolling sphere viscometry | 10.3 ± 0.37 | 6.18 ± 0.22 | 4.22 ± 0.15 | 3.08 ± 0.11
160000 kPa, Quartz crystal resonator | 10.7 ± 0.4 | 6.27 ± 0.26 | 4.25 ± 0.17 | 3.14 ± 0.13
180000 kPa, Falling or rolling sphere viscometry | 12.06 ± 0.44 | 7.11 ± 0.26 | 4.78 ± 0.17 | 3.46 ± 0.13
180000 kPa, Quartz crystal resonator | 12.4 ± 0.5 | 7.31 ± 0.3 | 4.7 ± 0.19 | 3.53 ± 0.14
200000 kPa, Falling or rolling sphere viscometry | 14.1 ± 0.51 | 8.16 ± 0.3 | 5.41 ± 0.2 | 3.88 ± 0.14
200000 kPa, Quartz crystal resonator | 14.5 ± 0.6 | 8.36 ± 0.34 | 5.36 ± 0.22 | 3.98 ± 0.16
